IC50 data for 23 molecules are collected here from patent publication US8344027B2, “4-dimethylaminobutyric acid derivatives” (Hoffmann-La Roche Inc., priority 2008, dated 2013).

The target in one assay is T1, hL-CPT1 (Homo sapiens, UniProt P50416).
T1 construct: made in house; host or cells: Pichia pastoris strain X-33
T1 sequence (P50416 1-773): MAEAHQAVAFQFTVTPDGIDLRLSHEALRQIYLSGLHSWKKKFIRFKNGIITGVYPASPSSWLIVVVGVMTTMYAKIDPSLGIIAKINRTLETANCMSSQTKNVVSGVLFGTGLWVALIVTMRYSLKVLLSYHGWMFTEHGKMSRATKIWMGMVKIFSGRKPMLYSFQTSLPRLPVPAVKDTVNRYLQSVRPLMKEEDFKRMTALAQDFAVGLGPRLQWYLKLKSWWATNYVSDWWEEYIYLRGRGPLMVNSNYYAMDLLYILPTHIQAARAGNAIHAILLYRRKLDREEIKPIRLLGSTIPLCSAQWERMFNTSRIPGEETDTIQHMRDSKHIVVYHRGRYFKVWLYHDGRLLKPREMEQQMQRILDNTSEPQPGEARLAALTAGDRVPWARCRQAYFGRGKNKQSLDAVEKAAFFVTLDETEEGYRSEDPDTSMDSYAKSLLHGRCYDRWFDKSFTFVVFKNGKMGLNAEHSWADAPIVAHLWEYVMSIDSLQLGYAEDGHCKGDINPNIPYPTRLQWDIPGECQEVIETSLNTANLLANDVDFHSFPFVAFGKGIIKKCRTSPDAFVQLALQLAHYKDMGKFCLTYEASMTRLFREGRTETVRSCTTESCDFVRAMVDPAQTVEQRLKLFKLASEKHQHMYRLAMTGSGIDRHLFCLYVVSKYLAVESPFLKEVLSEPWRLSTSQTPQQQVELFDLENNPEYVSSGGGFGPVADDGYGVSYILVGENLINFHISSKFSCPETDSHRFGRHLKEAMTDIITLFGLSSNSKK
As to the kind of experiment: liver CPT1 inhibition, spectrophotometric DTNB (Ellman's reagent) assay. As to conditions: human liver CPT1 expressed in P. pastoris, cell extract; carnitine 500 μM, palmitoyl-CoA 80 μM, DTNB 300 μM. The class given is biochemical. Here is the method: (§1) The following tests were carried out in order to determine the activity of the compounds of the present invention. Background information on the performed assays can be found in: Jackson et al., 1999, Biochem. J. 341, 483-489 and Jackson et al., 2000, J. Biol. Chem. 275, 19560-19566.
(§2) Human and rat CPT2- and liver CPT1 cDNAs, and human muscle CPT1 cDNA were subcloned in pGAPZB or pGAPZA, respectively. These plasmids were used to transform P. pastoris strain X-33 via electroporation after the preparation of electrocompetent cells. High copy number clones were selected where necessary using 0.5 or 1 mg/ml Zeocin. Cultures for activity measurements were induced for 16 h in YPD medium (1% yeast extract, 2% peptone, 2% glucose). Crude cell extracts were prepared by disrupting the cells with glass beads or French Press, depending on fermenter sizes. After centrifugation, the cell-free extracts were resuspended in cell breaking buffer (50 mM Tris, pH7.4, 100 mM KCl, 1 mM EDTA) in the presence of a protease inhibitor cocktail, before aliquoting and freezing at −20° C.
(§3) CPT activity was measured using a spectrophotometric assay using 5,5′-dithio-bis-(2-nitrobenzoic acid) (DTNB) also called Ellman's reagent. The HS-CoA released on the formation of acylcarnitine from carnitine (500 μM) and palmitoyl-CoA (80 μM) reduced DTNB (300 μM) forming 5-mercapto-2-nitrobenzoic acid which absorbed at 410 nm with a molar extinction coefficient of 13600 M^−1cm^−1. The assay buffer contained 120 mM KCl, 25 mM Tris, pH 7.4, 1 mM EDTA. This assay was used for the identification of CPT inhibitors, particularly/preferentially CPT2-selective inhibitors, versus the liver and muscle CPT1 isoforms.

Another assay concerns the target T2, hCPT2 (Homo sapiens, UniProt P23786).
T2 construct: made in house; host or cells: Pichia pastoris strain X-33
T2 sequence (P23786 26-658): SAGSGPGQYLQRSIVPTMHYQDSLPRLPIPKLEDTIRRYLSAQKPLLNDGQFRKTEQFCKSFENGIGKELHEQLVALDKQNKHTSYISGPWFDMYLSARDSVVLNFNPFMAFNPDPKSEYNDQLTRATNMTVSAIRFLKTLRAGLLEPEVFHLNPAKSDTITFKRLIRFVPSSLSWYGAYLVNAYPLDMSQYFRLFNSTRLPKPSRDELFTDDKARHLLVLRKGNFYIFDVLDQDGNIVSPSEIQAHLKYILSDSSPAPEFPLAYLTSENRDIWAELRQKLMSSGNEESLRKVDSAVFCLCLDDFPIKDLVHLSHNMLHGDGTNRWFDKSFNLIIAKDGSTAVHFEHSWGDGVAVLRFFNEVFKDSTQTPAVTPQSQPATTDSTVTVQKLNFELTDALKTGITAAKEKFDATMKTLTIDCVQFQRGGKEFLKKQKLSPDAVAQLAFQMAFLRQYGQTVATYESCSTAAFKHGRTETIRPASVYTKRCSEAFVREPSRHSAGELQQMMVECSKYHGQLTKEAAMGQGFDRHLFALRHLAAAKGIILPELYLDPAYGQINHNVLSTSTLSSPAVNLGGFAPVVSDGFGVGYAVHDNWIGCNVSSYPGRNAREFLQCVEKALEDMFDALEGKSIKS
As to the kind of experiment: CPT2 inhibition, spectrophotometric DTNB (Ellman's reagent) assay. As to conditions: human CPT2 expressed in P. pastoris, cell extract; carnitine 500 μM, palmitoyl-CoA 80 μM, DTNB 300 μM. The assay is classed as biochemical. As for the experimental part: as §1, §2, §3
For orientation: In Ellman's method for cholinesterases, released thiocholine reacts with DTNB.

Molecules are shown by their SMILES.

As usually defined, the IC50 is the midpoint of a concentration-inhibition curve. `CN(C)C[C@@H](CC(=O)O)NC(=O)CCCCCCCCOc1ccc(F)c(F)c1F` [Example 24, (R)-4-Dimethylamino-3-[9-(2,3,4-trifluoro-phenoxy)-nonanoylamino]-butyric acid]: the IC50 against hL-CPT1 stood at 5.36 µM; at hCPT2, 0.073 µM.
`CN(C)C[C@@H](CC(=O)O)NC(=O)CCCCCCCCOc1ccc(-c2ccccc2)cc1` [Example 25, (R)-3-[9-(Biphenyl-4-yloxy)-nonanoylamino]-4-dimethylamino-butyric acid]: the IC50 against hL-CPT1 is 1.47 µM; on hCPT2, 0.019 µM.
For `COc1ccc(OCCCCCCCCC(=O)N[C@H](CC(=O)O)CN(C)C)cc1OC` [Example 26, (R)-3-[9-(3,4-Dimethoxy-phenoxy)-nonanoylamino]-4-dimethylamino-butyric acid] the same measures were 1.15 µM and 0.4 µM.
For `CN(C)C[C@@H](CC(=O)O)NC(=O)CCCCCCCCOc1ccc(C(F)(F)F)cc1` [Example 27, (R)-4-Dimethylamino-3-[9-(4-trifluoromethyl-phenoxy)-nonanoylamino]-butyric acid] the same measures were 2.19 µM and 0.17 µM.
`COc1ccc(OCCCCCCCCC(=O)N[C@H](CC(=O)O)CN(C)C)cc1` [Example 28, (R)-4-Dimethylamino-3-[9-(4-methoxy-phenoxy)-nonanoylamino]-butyric acid]: the values for the IC50 at hL-CPT1 and at hCPT2 were 5.44 µM and 0.015 µM, respectively.
As for `CN(C)C[C@@H](CC(=O)O)NC(=O)CCCCCCCCOc1cccc2ccccc12` [Example 29, (R)-4-Dimethylamino-3-[9-(naphthalen-1-yloxy)-nonanoylamino]-butyric acid], the IC50 was more than 10 µM against hL-CPT1 and 0.16 µM against hCPT2.
For `CN(C)C[C@@H](CC(=O)O)NC(=O)CCCCCCCCOc1ccccc1` [Example 31, (R)-4-Dimethylamino-3-(9-phenoxy-nonanoylamino)-butyric acid] the same measures were 2.41 µM and 0.058 µM.
In the case of `CN(C)C[C@@H](CC(=O)O)NC(=O)CCCCCCCCCc1ccccc1` [Example 32, (R)-4-Dimethylamino-3-(10-phenyl-decanoylamino)-butyric acid], the IC50 on hL-CPT1 was 7.02 µM; at hCPT2 it was 0.143 µM.
On to `CN(C)C[C@H](CC(=O)O)NC(=O)CCCCCCCCCc1ccccc1` [Example 33, (S)-4-Dimethylamino-3-(10-phenyl-decanoylamino)-butyric acid], for which the half-maximal inhibitory concentration (IC50) at hL-CPT1 was more than 10 µM; against hCPT2 it was 0.948 µM.
For `CN(C)C[C@@H](CC(=O)O)NC(=O)CCCCCCCCCc1ccc(F)cc1` [Example 34, (R)-4-Dimethylamino-3-[10-(4-fluoro-phenyl)-decanoylamino]-butyric acid] the same measures were 4.32 µM and 0.122 µM.
With `CN(C)C[C@@H](CC(=O)O)NC(=O)CCCCCCCCCc1ccccc1F` [Example 35, (R)-4-Dimethylamino-3-[10-(2-fluoro-phenyl)-decanoylamino]-butyric acid], the IC50 was 3.59 µM against hL-CPT1 and 0.046 µM against hCPT2.
In the same order, the values of `Cc1ccc(C)c(CCCCCCCCCC(=O)N[C@H](CC(=O)O)CN(C)C)c1` [Example 36, (R)-4-Dimethylamino-3-[10-(2,5-dimethyl-phenyl)-decanoylamino]-butyric acid] are more than 10 µM and 0.317 µM.
For `Cc1cccc(C)c1CCCCCCCCCC(=O)N[C@H](CC(=O)O)CN(C)C` [Example 37, (R)-4-Dimethylamino-3-[10-(2,6-dimethyl-phenyl)-decanoylamino]-butyric acid] the same measures were more than 10 µM and 0.241 µM.
For `COc1ccc(CCCCCCCCCC(=O)N[C@H](CC(=O)O)CN(C)C)cc1` [Example 38, (R)-4-Dimethylamino-3-[10-(4-methoxy-phenyl)-decanoylamino]-butyric acid] the same measures were 6.91 µM and 0.017 µM.
Turning to `CN(C)C[C@@H](CC(=O)O)NC(=O)CCCCCCCCCc1cccc2ccccc12` [Example 39, (R)-4-Dimethylamino-3-(10-naphthalen-1-yl-decanoylamino)-butyric acid], the IC50 is more than 10 µM against hL-CPT1 and 0.003 µM at hCPT2.
As for `CN(C)C[C@@H](CC(=O)O)NC(=O)CCCCCCCCCc1ccc(C(F)(F)F)cc1` [Example 40, (R)-4-Dimethylamino-3-[10-(4-trifluoromethyl-phenyl)-decanoylamino]-butyric acid], the half-inhibitory concentration (IC50) on hL-CPT1 stood at 6.55 µM; against hCPT2, 0.044 µM.
In the same order, the values of `CN(C)C[C@@H](CC(=O)O)NC(=O)CCCCCCCCCc1cccc(F)c1` [Example 41, (R)-4-Dimethylamino-3-[10-(3-fluoro-phenyl)-decanoylamino]-butyric acid] are 7.72 µM and 0.098 µM.
In the same order, the values of `CN(C)C[C@@H](CC(=O)O)NC(=O)CCCCCCCCCc1cccc(F)c1F` [Example 42, (R)-3-[10-(2,3-Difluoro-phenyl)-decanoylamino]-4-dimethylamino-butyric acid] are 2.34 µM and 0.022 µM.
For `CN(C)C[C@@H](CC(=O)O)NC(=O)CCCCCCCCCc1ccsc1` [Example 43, (R)-4-Dimethylamino-3-(10-thiophen-3-yl-decanoylamino)-butyric acid] the same measures were 7.31 µM and 0.118 µM.
Consider `CN(C)C[C@@H](CC(=O)O)NC(=O)CCCCCCCCCc1cncs1` [Example 44, (R)-4-Dimethylamino-3-(10-thiazol-5-yl-decanoylamino)-butyric acid], for which the IC50 at hL-CPT1 is more than 10 µM; at hCPT2 it was 1.06 µM.
For `CN(C)C[C@@H](CC(=O)O)NC(=O)CCCCCCCCCCc1ccccc1` [Example 50, (R)-4-Dimethylamino-3-(11-phenyl-undecanoylamino)-butyric acid] the same measures were more than 10 µM and 2.1 µM.
For `CN(C)C[C@@H](CC(=O)O)NC(=O)CCCCCCCCCCCc1ccccc1` [Example 51, (R)-4-Dimethylamino-3-(12-phenyl-dodecanoylamino)-butyric acid] the same measures were 1.06 µM and 0.184 µM.
For `CN(C)C[C@@H](CC(=O)O)NC(=O)NCCCCCCCCCc1ccccc1` [Example 63, (R)-4-Dimethylamino-3-[3-(9-phenyl-nonyl)-ureido]-butyric acid] the same measures were 2.87 µM and 0.332 µM.
